The results in this text go back to US11203600B2 (Denali Therapeutics Inc., priority 2017, dated 2021).

Some results are limits rather than exact numbers.

The IC50 is the concentration needed to halve the response being measured. A higher IC50 goes with a need for much substance.

For the experiment, the target named is GST-hRIPK1 (8-327) (Homo sapiens (Human), UniProt Q13546). In words: Fluorescent Polarization Binding (FP Binding) assay, RIPK1. As to conditions: mean of at least two independent experiments. The procedure: Fluorescent Polarization Binding (FP Binding) assay (Berger S. B. et al. (2015) Cell Death Discovery, 1: 15009; Maki J. L. et al. (2012) Anal Biochem., 427(2): 164-174) was performed in polystyrene low volume 384-well black plate, at RT in a final volume of 10.1 μl/well using 10 nM of GST-hRIPK1 (8-327) enzyme and 5 nM of fluorescent-labeled ligand (14-(2-{[3-({2-{[4-(cyanomethyl)phenyl]amino]-6-[(5-cyclopropyl-1H-pyrazol-3-yl)amino]-4-pyrimidinyl}amino) propyl}amino}-2-oxoethyl)-16,16,18,18-tetramethyl-6,7,7a,8a,9,10,16,18-octahydrobenzo [2″,3″]indolizino[8″,7″:5′,6′]pyrano [3′,2′:3,4]pyrido[1,2-a]indo1-5-ium-2-sulfonate.
Test compounds were serially diluted in DMSO at 100 fold final concentrations in the assay (1% DMSO final). In each well of a 384-well Plate were dispensed 0.1 μL of compound solution (or DMSO for controls) followed by 5 μL of GST-hRIPK1 (8-327) at twice the final concentrations in assay buffer (50 mM HEPES pH 7.5, 10 mM NaCl, 50 mM MgCl2, 0.02% CHAPS, 0.5 mM DTT and 0.01% Pluronic F127). For negative control the enzyme addition was replaced by assay buffer only.
After addition of 5 μL of fluorescentlabeled ligand at twice the final concentrations in assay buffer, the plate was incubated at RT for […]. At the end, the binding was measured as FP value with the Envision (PerkinElmer) plate reader using filter for an excitation λ=531 nm FP and an emission λ=595 nm FP (S & P-pol). GST-hRIPK1 (8-327) enzyme was produced via Baculovirus expression.
Test compound inhibition was expressed as percent inhibition of internal assay controls. For concentration response curves, normalized data is fit and IC50 determined using XL-fit (IDBS) for Excel. The IC50 values were averaged to determine a mean value, for a minimum of two independent experiments. Results are shown in Table 2 (RIPK1 IC50) values: +++=0.1 nM<IC50<100 nM; ++=100 nM<IC50<1 μM; +=1 μM<IC50).

Setting [1] is: 10 nM GST-hRIPK1 (8-327), 5 nM fluorescent-labeled ligand, RT, 30 min.

Chain of GST-hRIPK1 (8-327) (Q13546 8-327): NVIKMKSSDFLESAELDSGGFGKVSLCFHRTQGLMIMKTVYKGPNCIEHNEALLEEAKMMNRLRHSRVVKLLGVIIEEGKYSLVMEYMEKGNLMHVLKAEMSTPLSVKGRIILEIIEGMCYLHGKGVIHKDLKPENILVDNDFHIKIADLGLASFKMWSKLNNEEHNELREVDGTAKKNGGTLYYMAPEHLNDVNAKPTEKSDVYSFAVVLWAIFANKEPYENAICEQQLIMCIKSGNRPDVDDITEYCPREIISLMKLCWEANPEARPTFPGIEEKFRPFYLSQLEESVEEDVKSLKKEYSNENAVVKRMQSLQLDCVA

`Cc1ncc2c(c1C#N)OCCN(C(=O)C(C)(C)C(F)F)C2` [Example 262, 4-(3,3-difluoro-2,2-dimethyl-propanoyl)-8-methyl-3,5-dihydro-2H-pyrido[3,4-f][1,4]oxazepine-9-carbonitrile] registered an IC50 (GST-hRIPK1 (8-327)) of 100 to 1000 nM.

Take `N#Cc1cncc2c1OCCN(C(=O)C1(F)CCN(c3nccc4ncnn34)CC1)C2` [Example 166, 4-[4-fluoro-1-([1,2,4]triazolo[1,5-c]pyrimidin-5-yl)piperidine-4-carbonyl]-3,5-dihydro-2H-pyrido[3,4-f][1,4]oxazepine-9-carbonitrile]: under setting [1], the IC50 fell in the range of 100 to 1000 nM.

In the case of `CCC(C)(C)C(=O)N1CCOc2ccccc2C1` [Example 6, 1-(3,5-dihydro-2H-1,4-benzoxazepin-4-yl)-2,2-dimethyl-butan-1-one], the IC50 under setting [1] fell in the range of 0.1 to 100 nM.

In turn, `CC(C)(C(=O)N1CCOc2c(C#N)cncc2C1)[C@H]1C[C@H](Cn2nccn2)C1` [Example 290, trans-4-[2-methyl-2-[3-(triazol-2-ylmethyl)cyclobutyl]propanoyl]-3,5-dihydro-2H-pyrido [3,4-f][1,4]oxazepine-9-carbonitrile] displayed an IC50 (GST-hRIPK1 (8-327)) of 100 to 1000 nM.

Molecule `N#Cc1cncc2c1OCCN(C(=O)C1CCN(c3ccnc4c(F)cnn34)C[C@@H]1F)C2` (stereo partly drawn) [Example 226, 4-[(3,4)-trans-3-fluoro-1-(3-fluoropyrazolo[1,5-a]pyrimidin-7-yl)piperidine-4-carbonyl]-3,5-dihydro-2H-pyrido[3,4-f][1,4]oxazepine-9-carbonitrile] returned an IC50 (GST-hRIPK1 (8-327)) of 0.1 to 100 nM.

`N#Cc1cncc2c1OCCN(C(=O)C1CCCN(c3ncc(F)cn3)CC1)C2` (stereo not drawn) [Example 92, 4-[1-(5-fluoropyrimidin-2-yl)azepane-4-carbonyl]-3,5-dihydro-2H-pyrido[3,4-f][1,4]oxazepine-9-carbonitrile] registered an IC50 under setting [1] of 100 to 1000 nM.

In turn, `CC(C)(CC#N)C(=O)N1CCOc2c(C#N)cncc2C1` [Example 31, 4-(3-cyano-2,2-dimethyl-propanoyl)-3,5-dihydro-2H-pyrido[3,4-f][1,4]oxazepine-9-carbonitrile] yielded an IC50 under setting [1] of 100 to 1000 nM.

Take `Cc1ccc2c(c1)CN(C(=O)C(C)(C)C(F)F)CCO2` [Example 11, 3,3-difluoro-2,2-dimethyl-1-(7-methyl-2,3-dihydrobenzo[f][1,4]oxazepin-4(5H)-yl)propan-1-one]: the IC50 under setting [1] fell in the range of 100 to 1000 nM.

For the setting “GST-hRIPK1 (8-327)”, `CC(C(=O)N1CCOc2c(C#N)cncc2C1)(C(F)F)C(F)F` [Example 268, 4-[2-(difluoromethyl)-3,3-difluoro-2-methyl-propanoyl]-3,5-dihydro-2H-pyrido[3,4-f][1,4]oxazepine-9-carbonitrile] showed an IC50 of 100 to 1000 nM.

Turning to `C=CC(C)(C)C(=O)N1CCOc2c(C#N)cncc2C1` [Example 271, 4-(2,2-dimethylbut-3-enoyl)-3,5-dihydro-2H-pyrido[3,4-f][1,4]oxazepine-9-carbonitrile], the IC50 (GST-hRIPK1 (8-327)) is 0.1 to 100 nM.

On to `CC1(C(=O)N2CCOc3c(C#N)cncc3C2)CCOC1` (stereo not drawn) [Example 42, 4-(3-methyltetrahydrofuran-3-carbonyl)-3,5-dihydro-2H-pyrido[3,4-f][1,4]oxazepine-9-carbonitrile], for which, under setting [1], the IC50 fell in the range of 100 to 1000 nM.

`COc1nc(N2CCC(C(=O)N3CCCc4ccccc4C3)CC2)ncc1F` [Example 237, [1-(5-fluoro-4-methoxy-pyrimidin-2-yl)-4-piperidyl]-(1,3,4,5-tetrahydro-2-benzazepin-2-yl)methanone]: the IC50 (GST-hRIPK1 (8-327)) was in the range of 0.1 to 100 nM.

For the molecule `N#Cc1cncc2c1OCCN(C(=O)C1CCN(c3ccnc4ccnn34)CC1)C2` [Example 205, 4-(1-pyrazolo[1,5-a]pyrimidin-7-ylpiperidine-4-carbonyl)-3,5-dihydro-2H-pyrido[3,4-f][1,4]oxazepine-9-carbonitrile], the half-maximal inhibitory concentration (IC50) (GST-hRIPK1 (8-327)) was in the range of 100 to 1000 nM.

With `COC1(C(=O)N2CCOc3c(C#N)cncc3C2)CCN(c2ncccn2)CC1` [Example 239, 4-(4-methoxy-1-pyrimidin-2-yl-piperidine-4-carbonyl)-3,5-dihydro-2H-pyrido[3,4-f][1,4]oxazepine-9-carbonitrile], the IC50 (GST-hRIPK1 (8-327)) lay within 0.1 to 100 nM.

Where the note is “GST-hRIPK1 (8-327)”, `CC1(C(=O)N2CCOc3c(C#N)cncc3C2)CCN(c2ncc(F)cn2)CC1(F)F` (single isomer, unassigned) [Example 284, 4-[3,3-Difluoro-1-(5-fluoropyrimidin-2-yl)-4-methyl-piperidine-4-carbonyl]-3,5-dihydro-2H-pyrido[3,4-f][1,4]oxazepine-9-carbonitrile] yielded an IC50 of 0.1 to 100 nM.

As for `O=C(C1CC(F)(F)C1)N1CCOc2ccccc2C1` [Example 1, (3,3-difluorocyclobutyl)(2,3-dihydrobenzo[f][1,4]oxazepin-4(5H)-yl)methanone], the IC50 under setting [1] was more than 1000 nM.

In turn, `CC(C)(C(=O)N1CCOc2c(C#N)cccc2C1)C1CC1` [Example 26, 4-(2-cyclopropyl-2-methyl-propanoyl)-3,5-dihydro-2H-1,4-benzoxazepine-9-carbonitrile] returned an IC50 under setting [1] of 0.1 to 100 nM.

`N#Cc1cncc2c1OCCN(C(=O)C1CCN(c3nccc4ncnn34)CC1(F)F)C2` (stereo not drawn) [Example 246, 4-[3,3-difluoro-1-([1,2,4]triazolo[1,5-c]pyrimidin-5-yl)piperidine-4-carbonyl]-3,5-dihydro-2H-pyrido[3,4-f][1,4]oxazepine-9-carbonitrile] returned an IC50 (GST-hRIPK1 (8-327)) of 100 to 1000 nM.

For the molecule `COCC(C)(C)C(=O)N1CCOc2c(C#N)cncc2C1` [Example 150, 4-(3-methoxy-2,2-dimethyl-propanoyl)-3,5-dihydro-2H-pyrido[3,4-f][1,4]oxazepine-9-carbonitrile], under setting [1], the IC50 fell in the range of 100 to 1000 nM.

As for `COc1nc(N2CCC(F)(C(=O)N3CCOc4c(C#N)cncc4C3)CC2)nc2ccccc12` [Example 197, 4-[4-fluoro-1-(4-methoxyquinazolin-2-yl)piperidine-4-carbonyl]-3,5-dihydro-2H-pyrido[3,4-f][1,4]oxazepine-9-carbonitrile], the IC50 under setting [1] was in the range of 100 to 1000 nM.

As for `CCC(C)(CC#N)C(=O)N1CCOc2c(C#N)cncc2C1` (single isomer, unassigned) [Example 264, 4-[2-(Cyanomethyl)-2-methyl-butanoyl]-3,5-dihydro-2H-pyrido[3,4-f][1,4]oxazepine-9-carbonitrile], the IC50 (GST-hRIPK1 (8-327)) was 0.1 to 100 nM.

As to `COc1nc(N2CCC(C(=O)N3CCOc4ccncc4C3)CC2)ncc1F` [Example 238], the IC50 (GST-hRIPK1 (8-327)) is 0.1 to 100 nM.

Molecule `CCC(C)(C)C(=O)N1CCOc2c(F)cncc2C1` [Example 207, 1-(9-fluoro-3,5-dihydro-2H-pyrido[3,4-f][1,4]oxazepin-4-yl)-2,2-dimethyl-butan-1-one] returned an IC50 (GST-hRIPK1 (8-327)) of 100 to 1000 nM.

Under setting [1], `CC(C(=O)N1CCOc2c(F)cccc2C1)C(F)(F)F` (stereo not drawn) [Example 17, 3,3,3-trifluoro-1-(9-fluoro-3,5-dihydro-2H-1,4-benzoxazepin-4-yl)-2-methyl-propan-1-one] showed an IC50 of more than 1000 nM.

Consider `CC(C)(C(=O)N1CCOc2cc(C#N)ccc2C1)C(F)F` [Example 28, 4-(3,3-difluoro-2,2-dimethyl-propanoyl)-3,5-dihydro-2H-1,4-benzoxazepine-8-carbonitrile], for which the IC50 under setting [1] lay in the range of 100 to 1000 nM.

Consider `N#Cc1cncc2c1OCCN(C(=O)C1CCN(c3ncc(F)cn3)C[C@@H]1F)C2` (stereo partly drawn) [Example 242, 4-[(3,4)-trans-3-fluoro-1-(5-fluoropyrimidin-2-yl)piperidine-4-carbonyl]-3,5-dihydro-2H-pyrido[3,4-f][1,4]oxazepine-9-carbonitrile], for which, for the setting “GST-hRIPK1 (8-327)”, the IC50 lay in the range of 0.1 to 100 nM.

In the case of `N#Cc1cncc2c1OCCN(C(=O)C1(F)CCN(c3ncccn3)CC1)C2` [Example 157, 4-(4-fluoro-1-pyrimidin-2-yl-piperidine-4-carbonyl)-3,5-dihydro-2H-pyrido[3,4-f][1,4]oxazepine-9-carbonitrile], the IC50 under setting [1] lay within 0.1 to 100 nM.

With `N#Cc1cncc2c1OCCN(C(=O)C1(F)CCN(c3ncc(F)c(C4CC4)n3)CC1)C2` [Example 201, 4-[1-(4-cyclopropyl-5-fluoro-pyrimidin-2-yl)-4-fluoro-piperidine-4-carbonyl]-3,5-dihydro-2H-pyrido[3,4-f][1,4]oxazepine-9-carbonitrile], the IC50 (GST-hRIPK1 (8-327)) lay in the range of 0.1 to 100 nM.

For `C[C@@H]1C[C@]1(C)C(=O)N1CCOc2c(C#N)cncc2C1` [Example 65, 4-[(1S,2R)-1,2-dimethylcyclopropanecarbonyl]-3,5-dihydro-2H-pyrido[3,4-f][1,4]oxazepine-9-carbonitrile], the IC50 under setting [1] fell in the range of 100 to 1000 nM.

`CC(C)(C(=O)N1Cc2ccccc2CCO1)C(F)F` [Example 38, 3,3-difluoro-2,2-dimethyl-1-(1,2,4,5-tetrahydro-3,2-benzoxazepin-2-yl)propan-1-one]: the IC50 under setting [1] was more than 1000 nM.
